According to ChEMBL document CHEMBL1201862, “PubChem BioAssay data set” (2004):
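Where inhibition never reached the appropriate level, the endpoint shown equals the highest concentration tested. Otherwise, values were interpolated linearly from a five-concentration, 48-hour dose response in 96-well plates. The concentration for 50% growth inhibition is given as GI50.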 Activity calls are given as the source filed them. No stated cut-off is given here; in the data, active = GI50 up to about 1.1 µM and inactive = higher.

Assays:
Assay in all cases: growth of human tumour cells (NCI), 48 h
[1] = test system: ACHN
[2] = test system: CAKI-1
[3] = test system: COLO 205
[4] = test system: HCT-116
[5] = test system: HOP-92
[6] = test system: IGROV-1
[7] = test system: KM12
[8] = test system: Malme-3M
[9] = test system: NCI-H226
[10] = test system: NCI-H23
[11] = test system: OVCAR-4
[12] = test system: OVCAR-5
[13] = test system: OVCAR-8
[14] = test system: SF-295
[15] = test system: SNB-19
[16] = test system: UO-31
[17] = test system: NCI-H522
[18] = test system: UACC-62

Measured: GI50

Nc1nc(=O)[nH]c2c1cnn2C1CCCCO1 (stereo not given)
inactive: [1] > 100 µM | [2] > 100 µM | [3] > 100 µM | [4] > 100 µM | [5] > 100 µM | [6] > 100 µM | [7] > 100 µM | [8] > 100 µM | [9] 39.3 µM | [10] > 100 µM | [11] > 100 µM | [12] 64 µM | [13] > 100 µM | [14] > 100 µM | [15] > 100 µM | [16] > 100 µM

CCC(C)CN1C(=O)NC(Cc2ccccc2)C1=O (stereo not given)
inactive: [1] > 100 µM | [2] > 100 µM | [5] 19.4 µM | [7] > 100 µM | [8] > 100 µM | [9] > 100 µM | [10] > 100 µM | [17] > 100 µM | [12] > 100 µM | [13] > 100 µM | [14] > 100 µM | [15] > 100 µM | [16] > 100 µM

C=C=CC(NC(=O)c1ccccc1)(C(=O)O)C(F)(F)F (stereo not given)
inactive: [1] > 100 µM | [2] > 10 µM | [3] > 100 µM | [4] > 100 µM | [5] > 100 µM | [6] > 100 µM | [7] > 100 µM | [8] > 100 µM | [9] > 100 µM | [10] > 100 µM | [11] > 10 µM | [12] > 100 µM | [13] > 100 µM | [14] > 100 µM | [15] > 100 µM

O=c1c2cc3c(=O)n(CCc4ccccc4CO)c(=O)c3cc2c(=O)n1CCc1ccccc1CO
inactive: [1] > 100 µM | [4] > 100 µM | [6] > 100 µM | [7] > 100 µM | [8] > 100 µM | [9] > 100 µM | [10] > 100 µM | [17] > 100 µM | [11] > 100 µM | [13] > 100 µM | [14] 46.6 µM | [15] > 100 µM | [18] > 100 µM | [16] > 100 µM

C#CCC1(C(=O)OCC)C(=O)c2ccccc2N(C)C1=O (stereo not given)
inactive: [1] 93.5 µM | [2] 35.6 µM | [3] > 100 µM | [5] 36.6 µM | [6] > 100 µM | [8] > 100 µM | [9] 62.5 µM | [10] 14.7 µM | [17] 12.1 µM | [13] > 100 µM | [14] > 100 µM | [15] 45.4 µM | [18] > 100 µM | [16] 30.8 µM

Nc1nc(N)c2nc(-c3ccco3)cnc2n1
inactive: [1] 59.4 µM | [2] 25 µM | [3] 65.6 µM | [4] 34.4 µM | [5] 40 µM | [6] 43.1 µM | [7] 93.5 µM | [8] 46.5 µM | [9] > 100 µM | [10] 75 µM | [17] 50.2 µM | [12] > 100 µM | [13] > 100 µM | [14] 60.3 µM | [15] > 100 µM | [18] 22.4 µM | [16] 38.5 µM

C/C(CCn1[nH]c(=O)ccc1=O)=N\NC(=O)C(=O)NN
inactive: [1] > 100 µM | [2] > 100 µM | [3] > 100 µM | [6] > 100 µM | [7] > 100 µM | [8] > 100 µM | [9] > 100 µM | [10] > 100 µM | [17] > 100 µM | [11] > 100 µM | [12] > 100 µM | [13] > 100 µM | [14] > 100 µM | [15] > 100 µM | [18] > 100 µM | [16] > 100 µM

O=C(O)[C@@H](NS(=O)(=O)c1ccc(F)cc1)c1ccccc1
inactive: [1] > 100 µM | [2] > 100 µM | [3] > 100 µM | [4] > 100 µM | [6] > 100 µM | [8] > 100 µM | [9] > 100 µM | [10] > 100 µM | [17] > 100 µM | [11] > 100 µM | [12] > 100 µM | [13] > 100 µM | [14] > 100 µM | [15] > 100 µM | [18] > 100 µM | [16] > 100 µM

Nc1nc(SCc2ccccc2Cl)c2[nH]cnc2n1
inactive: [1] 31.5 µM | [3] 91.6 µM | [4] 59.8 µM | [6] 41.8 µM | [7] 74.3 µM | [8] 70.8 µM | [10] 66.1 µM | [17] 56.4 µM | [12] 96.4 µM | [13] 55.7 µM | [14] 58.6 µM | [15] 70.1 µM | [18] 61 µM | [16] 77.6 µM
